Target: T1, human serotonin 5-HT1A receptor (5-HT1AR) (Homo sapiens, UniProt P08908)
T1 construct: purchased Perkin Elmer
T1 sequence (P08908 1-422): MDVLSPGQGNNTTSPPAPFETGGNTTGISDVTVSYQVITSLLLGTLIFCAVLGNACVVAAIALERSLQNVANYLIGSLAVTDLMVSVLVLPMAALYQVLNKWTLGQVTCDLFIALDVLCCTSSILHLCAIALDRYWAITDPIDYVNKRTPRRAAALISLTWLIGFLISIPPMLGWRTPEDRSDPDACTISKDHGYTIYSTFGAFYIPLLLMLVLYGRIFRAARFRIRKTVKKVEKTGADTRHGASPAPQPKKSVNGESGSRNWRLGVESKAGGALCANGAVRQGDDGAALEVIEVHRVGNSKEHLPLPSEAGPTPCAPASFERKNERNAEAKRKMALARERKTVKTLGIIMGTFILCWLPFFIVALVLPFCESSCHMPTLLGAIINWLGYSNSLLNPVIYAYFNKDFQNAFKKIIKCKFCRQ
Assay: 5-HT1A activity assay via microplate reader (BODIPY-GTPγS unquenching) in pGUPs
Format: biochemical
Details: for Rate (protein functional rate): agonist 8-OH-DPAT, 37° C., 12 hours
Protocol: Fluorescence unquenching of BODIPY-GTPγS due to G protein binding was monitored every 5 minutes. Tracked fluorescence over time was first calculated as percent intensity increase to account for variation in sample size. Curves represent six independent replicates of the same experimental protocol and each time point is an average of the intensity increase. Curves were then normalized for ease in viewing the differences in protein functional rate.
25 mm no. 1 coverslips were cleaned via sonication in MeOH for 30 minutes at 35° C. Coverslips were dried and were further plasma treated in a PDC-32G benchtop plasma cleaner (Harrick Plasma, USA) for 15 minutes. Coverslips were held in Sykes-Moore chambers for vesicle formation. Protein-incorporated polymeric giant unilamellar protein-vesicles (pGUPs) were formed using methods similar to those previously published for lipid vesicles. Briefly, a 1:1 v/v mixture of membrane fragment suspension and agarose (3% w/v) at 45° C. was drop casted onto coverslips for thin film formation. The hydrogel film was allowed to gel and a film of polymer solution (5 mg/ml in CHCl3) was subsequently made. Solvent was evaporated using a stream of N2 gas. […] Vesicles were harvested from the coverslip and diluted in 3× of an isoosmotic glucose solution (200 mM glucose in PBS, pH 7.4). (p)GUPs were allowed to sediment in glucose for 30 minutes at room temperature.
Prepared and settled pGUPs were transferred to a flat bottom 96-well plate. Agonist 8-OH-DPAT was added to each well to a final concentration of 150 nM immediately prior to reading fluorescence. Control pGUPs were run without the addition of the agonist. Rehydration buffer with and without agonist and protein were read as positive and negative controls. Samples were read at physiological temperature (37° C.) every 5 minutes for twelve hours to ensure complete activity assessment. Fluorescence reading of BODIPY-GTPγS unquenching was done on a Biotek Synergy H4 Microplate Reader equipped with a xenon flash lamp. Excitation was set to 485/20 nm and emission at 528/20 nm at a read height of 7 mm.
Fluorescence microtiter results were collect and analyzed using JMP. Six separate observations were fitted and averaged to obtain a single curve with standard error mean values. Rates were fitted to the JMP Mechanistic Growth curve using a single exponential. Statistical analysis using a Tukey-Kramer pairwise comparison of means were done using JMP with a 95% confidence interval (α=0.05).

SMILES	Rate (protein functional rate) (14 μM antagonist in pGUPs) [min⁻¹]	Effect on protein functional rate (antagonist in pGUPs)	Rate (protein functional rate) (14 pM antagonist in pGUPs) [min⁻¹]	Rate (protein functional rate) (14 nM antagonist in pGUPs) [min⁻¹]
COc1ccccc1N1CCN(CCCCN2C(=O)c3ccccc3C2=O)CC1 [NAN-190]	0.057	reduce the protein functional rate		
O=C(CCCN1CCC2(CC1)C(=O)NCN2c1ccccc1)c1ccc(F)cc1 [Spiperone, spiperone]	0.077		0.102	0.096

Reference: US20180177729A1, “G PROTEIN-COUPLED RECEPTORS INCORPORATED INTO REHYDRATED POLYMER VESICLES RETAIN FUNCTIONALITY” (UNIVERSITY OF SOUTHERN CALIFORNIA, priority 2016, published 2018)
